Results published in patent publication US20070093455A1, “10-substituted tetracyclines and methods of use thereof” (priority 2005, published 2007).
≈ marks a conversion by molar mass, not a printed value.

Legend:
S. aureus RN450 = experiment: In vitro MIC assay, S. aureus RN450; type: cell-based; settings: Staphylococcus aureus, broth microdilution, 35° C., 18-24 hours
S. aureus MRSA5 = experiment: In vitro MIC assay, S. aureus MRSA5; type: cell-based; settings: Staphylococcus aureus, broth microdilution, 35° C., 18-24 hours
S. aureus RN4250 = experiment: In vitro MIC assay, S. aureus RN4250; type: cell-based; settings: Staphylococcus aureus, broth microdilution, 35° C., 18-24 hours
S. pneumoniae 157E = experiment: In vitro MIC assay, S. pneumoniae 157E; type: cell-based; settings: Streptococcus pneumoniae, broth supplemented with lysed horse blood, 35° C., 18-24 hours
E. coli (ATCC 25922) = experiment: In vitro MIC assay, E. coli (ATCC 25922); type: cell-based; settings: Escherichia coli, ATCC25922; broth microdilution, 35° C., 18-24 hours
E. coli MG 1655 DWAK = experiment: In vitro MIC assay, E. coli MG 1655 DWAK; type: cell-based; settings: Escherichia coli, MG1655DWAK; broth microdilution, 35° C., 18-24 hours
Description: The following assay was used to determine the efficacy of tetracycline compounds against common bacteria. Serial dilutions of compounds were prepared in microdilution plates using a Tecan robotic workstation. Mueller Hinton broth cultures of gram negative and gram positive strains were grown or adjusted to match the turbidity of a 0.5 McFarland standard. 1:200 dilutions were made in appropriate broth (cation supplemented Mueller Hinton broth or Haemophilus test medium) to allow a final inoculum of 1×10^5 cfu. Lysed horse blood was used to supplement broth for testing S. pneumoniae. The plates were incubated at 35° C. in ambient air for 18-24 hours, read spectrophotometrically, and checked manually for evidence of bacterial growth. Serial dilutions of compounds were also added to Brucella agar supplemented with laked sheep blood for P. acnes tests. A standard inoculum was transferred to the plate using a stainless steel replicator. After 48 hours of anaerobic incubation at 35° C. plates were examined. The MIC was defined as the lowest concentration of the tetracycline compound that inhibits growth. Table 3 gives the MIC (μg/mL) of selected substituted tetracycline compounds against a variety of gram positive and gram negative bacteria.

P. aeruginosa K1033 = experiment: In vitro MIC assay, P. aeruginosa K1033; type: cell-based; settings: Pseudomonas aeruginosa, broth microdilution, 35° C., 18-24 hours
[1] = test system: H. influenza (ATCC 49247); experiment: In vitro MIC assay, H. influenza (ATCC 49247); type: cell-based; settings: read-out: MIC H. influenza (ATCC 49247)
B. fragilis (ATCC 25285) = experiment: In vitro MIC assay, B. fragilis (ATCC 25285); type: cell-based; settings: Bacteroides fragilis, ATCC25285
[2] = test system: B. theraiotaomicron (ATCC 29741); experiment: In vitro MIC assay, B. theraiotaomicron (ATCC 29741); type: cell-based
P. acnes (ATCC 6919) = experiment: In vitro MIC assay, P. acnes (ATCC 6919); type: cell-based; settings: Cutibacterium acnes, ATCC6919; Brucella agar with laked sheep blood, 48 hours anaerobic, 35° C.
P. acnes (ATCC 11827) = experiment: In vitro MIC assay, P. acnes (ATCC 11827); type: cell-based; settings: Cutibacterium acnes, ATCC11827; Brucella agar with laked sheep blood, 48 hours anaerobic, 35° C.
P. acnes (PBS 1073) = experiment: In vitro MIC assay, P. acnes (PBS 1073); type: cell-based; settings: Cutibacterium acnes; Brucella agar with laked sheep blood, 48 hours anaerobic, 35° C.
P. acnes (PBS 1074) = experiment: In vitro MIC assay, P. acnes (PBS 1074); type: cell-based; settings: Cutibacterium acnes; Brucella agar with laked sheep blood, 48 hours anaerobic, 35° C.
P. acnes (ATCC 1077) = experiment: In vitro MIC assay, P. acnes (ATCC 1077); type: cell-based; settings: Cutibacterium acnes, ATCC1077; Brucella agar with laked sheep blood, 48 hours anaerobic, 35° C.
COS-1 or CHO cell = experiment: Mammalian cell cytotoxicity assay (Resazurin; Alamar Blue); type: cell-based; settings: COS-1 or CHO cells, 24 hour incubation
Description: To predict the in vivo risks associated with the compounds of the invention, a soluble, non-toxic redox dye (“Resazurin”; Alamar Blue) was used to assess a compound's effect on cellular metabolism. COS-1 or CHO cell suspensions were prepared, seeded into 96-well black-walled microtiter plates, and incubated overnight at 37° C., in 5% CO2 and approximately 95% humidity. On the next day, serial dilutions of test drug were prepared and transferred to cell plates. Following a 24 hour incubation period, the media/drug was aspirated, and 50 μL of resazurin was added. After a 2 hour incubation, fluorescence measurements were taken (excitation […], emission 590 nm) and toxic effects in treated versus control cells were compared based on the degree of fluorescence in each well.

[3] = test system: Mouse 3T3 fibroblast cells; experiment: Phototoxicity assay (neutral red); type: cell-based; settings: 3T3 cells
Description: Mouse 3T3 fibroblast cells were harvested and plated at a concentration of 1×10^5 cells/mL. Drug dilutions were made in HBSS and added to the plates. Duplicate plates were then incubated in the dark (for controls), or under UV light (meter reading of 1.6-1.8 mW/cm^2) for 50 minutes. Cells were then washed with HBSS, fresh medium was added, and plates were then incubated overnight. The following day, neutral red was added as an indicator of cell viability and plates were incubated for an additional 3 hours. Cells were then washed with HBSS and a solution of 50% EtOH, 10% glacial acetic acid is added. After a 20 minute incubation period, plates absorbance at 535 nm were read using a Wallac Victor 5 spectrophotometer. The phototoxicity in light-treated and control cultures was then compared.

P. acnes (PBS 1080) = experiment: In vitro MIC assay, P. acnes (PBS 1080); type: cell-based; settings: Cutibacterium acnes; Brucella agar with laked sheep blood, 48 hours anaerobic, 35° C.
P. acnes (PBS 994) = experiment: In vitro MIC assay, P. acnes (PBS 994); type: cell-based; settings: Cutibacterium acnes; Brucella agar with laked sheep blood, 48 hours anaerobic, 35° C.
P. granulosum (PBS 1048) = experiment: In vitro MIC assay, P. granulosum (PBS 1048); type: cell-based
P. granulosum (PBS 1098) = experiment: In vitro MIC assay, P. granulosum (PBS 1098); type: cell-based
E. coli translation = experiment: In vitro translation assay for inhibition of bacterial protein synthesis (E. coli S30 Extract System, luciferase); type: biochemical; settings: 37° C., 1 hour, luciferase luminescence
Description: As a further measure of antibacterial activity, an E. coli S30 Extract System was used to quantitate inhibition of E. coli translation by tetracycline derivatives. This system contained all required components for translation, including a nucleic acid template which, when translated, produces functional luciferase. The reactions were set up with E. coli S30 extract, amino acids, DNA template and selected tetracycline compounds at concentrations of 100, 50, 25, 10, 5, and 1 μg/ml. The reactions were incubated at 37° C. for 1 hour and analyzed by adding the reaction mix to Steady-Glo Luciferase Assay substrate (Promega, Madison Wis.). Luminescence was measured with the Wallac Victor5 plate reader and inhibition is calculated by comparing luciferase activity in experimental reactions versus controls.

[4] = test system: carrageenan induced paw edema; experiment: Rat model of carrageenan induced paw edema; type: in vivo; settings: 3 hours after carrageenan injection
Description: Carrageenan-induced paw edema represents a commonly used experimental model to assess the anti-inflammatory properties of agents. In this example, male Sprague-Dawley rats (Charles River, Mass.) weighing 175-250 grams were used. Test compounds were administered intraperitoneally 5 minutes or orally 15 minutes before a subplantar injection of carrageenan (5 mg/1 ml) in the rat right hind paw. The paw volume (ml) was monitored with a plethysmometer (Water Plethysmometer) at time of carrageenan injection (baseline) and 3 hours after carrageenan injection. […] Both results were statistically significant with a p<0.1 level by Kruskal-Wallis One Way ANOVA, ChiSquare. There were approximately four rats per group.

Row | Structure (SMILES) | MIC (S. aureus RN450) | MIC (S. aureus MRSA5) | MIC (S. aureus RN4250) | MIC (S. pneumoniae 157E) | MIC (E. coli (ATCC 25922)) | MIC (E. coli MG 1655 DWAK) | MIC (P. aeruginosa K1033) | MIC [1] | MIC (B. fragilis (ATCC 25285)) | MIC [2] | MIC (P. acnes (ATCC 6919)) | MIC (P. acnes (ATCC 11827)) | MIC (P. acnes (PBS 1073)) | MIC (P. acnes (PBS 1074)) | MIC (P. acnes (ATCC 1077)) | cytotoxicity at 75 μg/mL (COS-1 or CHO cell) | phototoxicity at 150 μM, incubated in the dark [3] | other results
1 | CC(=O)c1cccc2c1CC1CC3[C@@H](N(C)C)C(O)=C(C(N)=O)C(=O)[C@@]3(O)C(O)=C1C2=O (stereo partly drawn) [I] | 0 to 21 µg/mL | 0 to 21 µg/mL | 0 to 21 µg/mL | 0 to 21 µg/mL | 22 to 43 µg/mL (≈ 49.9 to 97.6 µM) | 0 to 21 µg/mL | 0 to 21 µg/mL | 0 to 21 µg/mL | 0 to 8 µg/mL | 28 to 32 µg/mL (≈ 63.6 to 72.7 µM) | 0 to 8 µg/mL | 0 to 8 µg/mL | 28 to 32 µg/mL (≈ 63.6 to 72.7 µM) | 28 to 32 µg/mL (≈ 63.6 to 72.7 µM) | 28 to 32 µg/mL (≈ 63.6 to 72.7 µM) | minimal cytotoxicity | not to be appreciably phototoxic | phototoxicity at 30 μM, incubated in the UV light ([3]; UV light 1.6-1.8 mW/cm^2, 30 μM): minimally phototoxic
2 | CC(=O)c1cccc2c1CC1CC3[C@H](N(C)C)C(O)=C(C(N)=O)C(=O)[C@@]3(O)C(O)=C1C2=O (stereo partly drawn) [J] | 0 to 21 µg/mL | 0 to 21 µg/mL | 0 to 21 µg/mL | 0 to 21 µg/mL | 0 to 21 µg/mL | 0 to 21 µg/mL | 0 to 21 µg/mL | 0 to 21 µg/mL | 0 to 8 µg/mL | 28 to 32 µg/mL (≈ 63.6 to 72.7 µM) | 0 to 8 µg/mL | 0 to 8 µg/mL | 28 to 32 µg/mL (≈ 63.6 to 72.7 µM) | 28 to 32 µg/mL (≈ 63.6 to 72.7 µM) | 28 to 32 µg/mL (≈ 63.6 to 72.7 µM) | minimal cytotoxicity | not to be appreciably phototoxic | 
3 | CN(C)c1cccc2c1CC1CC3[C@H](N(C)C)C(O)=C(C(N)=O)C(=O)[C@@]3(O)C(O)=C1C2=O (stereo partly drawn) [Compound A] | 0 to 21 µg/mL | 44 to 64 µg/mL (≈ 99.7 to 145 µM) | 0 to 21 µg/mL | 0 to 21 µg/mL | 22 to 43 µg/mL (≈ 49.8 to 97.4 µM) | 0 to 21 µg/mL | 0 to 21 µg/mL | 22 to 43 µg/mL (≈ 49.8 to 97.4 µM) | 0 to 8 µg/mL | 9 to 27 µg/mL (≈ 20.4 to 61.2 µM) | 0 to 8 µg/mL | 0 to 8 µg/mL | 9 to 27 µg/mL (≈ 20.4 to 61.2 µM) | 9 to 27 µg/mL (≈ 20.4 to 61.2 µM) | 9 to 27 µg/mL (≈ 20.4 to 61.2 µM) | minimal cytotoxicity | not to be appreciably phototoxic | MIC (P. acnes (PBS 1080)): 9 to 27 µg/mL (≈ 20.4 to 61.2 µM); MIC (P. acnes (PBS 994)): 9 to 27 µg/mL (≈ 20.4 to 61.2 µM); MIC (P. granulosum (PBS 1048)): 9 to 27 µg/mL (≈ 20.4 to 61.2 µM); MIC (P. granulosum (PBS 1098)): 9 to 27 µg/mL (≈ 20.4 to 61.2 µM); IC20 (E. coli translation): > 100 µM; IC50 (E. coli translation): > 100 µM; decrease in paw inflammation relative to the untreated control ([4]; 75 mg/kg IP): 60%
4 | CN(C)c1ccc(O)c2c1C[C@H]1C[C@H]3[C@H](N(C)C)C(O)=C(C(N)=O)C(=O)[C@@]3(O)C(O)=C1C2=O [Minocycline, reference compound] |  |  |  |  |  |  |  |  |  |  |  |  |  |  |  |  |  | reduced inflammation relative to the untreated control ([4]; 50 mg/kg IP, positive control): 70%
